Publication PMC8062851, “2-Methoxyestradiol and its derivatives inhibit store-operated Ca^2+ entry in T cells: Identification of a new and potent inhibitor” (Biochimica et Biophysica Acta. Molecular Cell Research, 2021)
Entries after “also recorded” stand apart in the source; their conditions may differ.

Columns and labels:
SERCA pumps = assay: SERCA activity (ATP-induced Ca2+ reuptake) in permeabilized Jurkat T cells; assay type: cell-based, human
Method: 3 ∗ 10^7 Jurkat T-lymphocytes per measurement were centrifuged at 450 ×g for 5 min at room temperature. The pellet was rinsed twice, each time using 10 ml permeabilization buffer 1 (120 mM KCl, 10 mM NaCl, 1.2 mM MgCl2, 0.533 mM CaCl2, 1 mM EGTA and 10 mM HEPES, pH 7.2 (KOH), sterile filtered). Subsequently, the pellet was resuspended in 2 ml permeabilization buffer 1 containing 80 μg/ml saponin (Fluka) and the cells were incubated for 10 min at 37 °C. Subsequently, the cells were centrifuged at 450 ×g for 5 min at room temperature and the cell pellet was washed once in 10 ml permeabilization buffer 2 (120 mM KCl, 10 mM NaCl, 1.2 mM MgCl2 and 10 mM HEPES, pH 7.2 (KOH), sterile filtered). Finally, the cells were taken up in 1 ml permeabilization buffer 2, placed into a cuvette and measured at the fluorescence spectrophotometer. Before the start of the measurement, 0.5 μl of 1 mM Fura2 free acid (dissolved in pure water, final concentration: 0.5 μM), 5 μl of 5 mg/ml creatinkinase (dissolved in permeabilization buffer 2, final concentration: 25 μg/ml, 20 U/ml, Roche) and 10 μl of 2 M creatin phosphate (dissolved in permeabilization buffer 2, final concentration: 20 mM, Calbiochem) were added. Fura2 was used to measure the Ca^2+ concentration and creatinkinase and creatin phosphate were used as ATP-regenerating system. The measurement was controlled by FL Solutions (Version 4.1, Hitachi High-Technologies Corporation). Fura2 was alternatively excited every 2 s at 340 ± 5 nm and 380 ± 5 nm, each 400 ms apart. Fluorescence intensity was measured at an emission wavelength of 495 ± 5 nm for both excitation wavelengths. […] Ca^2+ concentrations were calculated according to Grynkiewicz et al. as described earlier in Section 2.4.
As a quantitative read-out for inhibition of IP3 receptors, the peak [Ca^2+] after IP3 addition was subtracted from the mean [Ca^2+] between 25 and 75 s before IP3 addition (dPeak). […] The rate constant K of the fitted data was used as a quantitative read-out for SERCA pump activity and its inhibition.

TMBP cells = assay: In vitro activation of TMBP cells by MBP, cytokine mRNA by qPCR; assay type: cell-based, rat
Method: Myelin basic protein (MBP)-reactive CD4^+ T cells retrovirally transduced to express enhanced GFP (TMBP cells) were established as previously reported. In brief, 6–8 week old female Lewis rats were immunized subcutaneously with 150 μl of emulsion consisting of equal parts of MBP (stock concentration: 1 mg/ml) and complete Freund's adjuvant containing heat-inactivated Mycobacterium tuberculosis extract (Difco; stock concentration: 2 mg/ml). Draining lymph nodes were harvested and passed through a cell strainer (40 μm) 9–10 days after immunization. The cell suspension was co-cultured with GP + E86 packaging cell lines producing replication-deficient retroviruses in the presence of 10 μg/ml MBP. Murine IL-2 was added to the culture for T cell expansion from day 2–4 after stimulation. The cell lines underwent 3–4 cycles of stimulation before being used for in vitro and in vivo experiments. […] Upon stimulation, they produced interferon-γ and IL-17.
In vitro activation assays were performed in 96-well plates. […]. TMBP cell activation on mRNA level was determined using qPCR and on surface protein level using surface marker staining and subsequent flow cytometry analysis.
Total RNA was isolated using the standard TRIzol method. cDNA was synthesized using the RevertAid First Strand cDNA Synthesis Kit (Thermo Fisher Scientific). Quantitative PCR (qPCR) was performed using the StepOnePlus™ Real-Time PCR System (Applied Biosystems), as previously described [[23], [24], [25]]. Rat TMBP cell data were obtained from three to four independent duplicate measurements. β-actin served as housekeeping gene. Human PBMC data were obtained from two independent healthy donors and duplicate measurements (representative data of one donor are shown). HPRT served as housekeeping gene. For all probes (TaqMan), a combination of 5′-FAM and 3′-TAMRA quencher was used as described.

CCc1cc2c(cc1OS(N)(=O)=O)CC[C@@H]1[C@@H]2CC[C@]2(C)[C@@H](CC#N)CC[C@@H]12 [STX564, 2-ethyl-3-sulfamoyloxy-17β-cyanomethylestra-1,3,5(10)-triene]
effect on SERCA activity (initial slope of [Ca2+] upon ATP addition) (SERCA pumps): Neither STX564, Synta66 nor vehicle DMSO affected ATP-induced Ca^2+ reuptake by SERCA pumps; also recorded: neither STX564 nor Synta66 showed any effect
concentration at which TCR/CD3-evoked pro-inflammatory cytokine expression was significantly reduced (TMBP cells; TMBP cells + MBP, 6 h, qPCR): ≥ 0.1 µM
concentration at which interferon-γ expression was significantly antagonized (TMBP cells; TMBP cells + MBP, 6 h, qPCR, STX564 vs Synta66): ≥ 0.1 µM
fold higher antagonist potency over Synta66, pro-inflammatory cytokine expression (TMBP cells; rat effector TMBP cells, especially INF-γ expression): approx. 100 fold
